Structures can show the parent of a compound that is named as a salt.
Experiments:
PAI-1 = PAI-1 (Homo sapiens, UniProt P05121); test: PAI-1 inhibition in the S2251 chromogenic substrate assay (PAI functional assay); assay type: biochemical; conditions: 20 μM, Table 1, second part; for INHIBITION OF PAI-1 (degree of inhibition): unit assumed
Summary of the method: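 Compound preincubated with PAI-1, then added to a tPA/plasminogen system; residual tPA activity converts plasminogen to plasmin.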

[1] = tested on: cytotoxicity of vincristine; conditions: J. Antibiotics vol XLIII No. 8, 1018-1020; cited from earlier work

Chain of PAI-1 (P05121 24-402): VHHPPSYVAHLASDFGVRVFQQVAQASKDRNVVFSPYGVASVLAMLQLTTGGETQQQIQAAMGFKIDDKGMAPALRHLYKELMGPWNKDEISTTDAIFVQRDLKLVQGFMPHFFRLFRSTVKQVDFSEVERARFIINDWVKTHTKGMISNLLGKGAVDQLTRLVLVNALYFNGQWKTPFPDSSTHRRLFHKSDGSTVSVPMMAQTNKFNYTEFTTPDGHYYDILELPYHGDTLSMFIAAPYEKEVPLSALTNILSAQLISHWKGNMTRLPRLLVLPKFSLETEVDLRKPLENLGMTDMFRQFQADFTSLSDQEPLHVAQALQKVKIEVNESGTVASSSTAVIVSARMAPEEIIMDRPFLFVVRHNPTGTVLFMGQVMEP

INHIBITION OF PAI-1 (degree of inhibition) (PAI-1) | Structure (SMILES) | utility as potentiators of the cytotoxicity of vincristine [1] | also measured
42% | CN(C)CCCOc1ccc(/C=c2\[nH]c(=O)/c(=C/c3ccc(C(=O)NCCCCN4CCc5ccccc5C4)cc3)[nH]c2=O)cc1 [Compound 5397, N-(4-(1,2,3,4-Tetrahydro-2-isoquinolyl)butyl)-4-((3Z,6Z)-6-(4-(3-dimethylaminopropoxy)benzylidene)-2,5-dioxo-3-piperazinylidene)methylbenzamide] | – | –
21% | CN(C)CCCOc1ccc(/C=c2\[nH]c(=O)/c(=C/c3ccc(C(=O)NCCCCN4CCc5ccccc5C4)cc3)[nH]c2=O)cc1 [Compound 5397.HCl] | – | –
– | COc1cc2c(cc1OC)CN(CCc1ccc(NC(=O)c3ccc(/C=c4\[nH]c(=O)/c(=C/c5ccc([N+](=O)[O-])cc5)[nH]c4=O)cc3)cc1)CC2 [Compound 5402] | – | inhibition at 20 µM (PAI-1; read-out: INHIBITION OF PAI-1 (degree of inhibition)): 37%
– | Cn1c(=O)/c(=C/c2ccccc2)[nH]c(=O)/c1=C/c1ccccc1 [piperafizine A] | potentiators of the cytotoxicity of vincristine | –
– | O=c1[nH]/c(=C\c2ccccc2)c(=O)[nH]/c1=C\c1ccccc1 [piperafizine B] | potentiators of the cytotoxicity of vincristine | –

— US5891877A, “Pharmaceutical compounds” (Xenova Limited, priority 1996, dated 1999)
